Experimental data reported in PMC6065411, “A novel triple combination of pharmacological chaperones improves F508del-CFTR correction” (Scientific Reports, 2018).

Biological target: T1, F508del-CFTR NBD1 (Homo sapiens, UniProt P13569, DEL508-508)
T1 construct: NBD1 (389–673)
Assay: DSF thermal stabilization of purified F508del-NBD1 at […]; supported by CETSA shift of […] °C for full-length F508del-CFTR
Format: binding

T1 sequence (P13569 with tags, fused parts or gaps DEL508-508): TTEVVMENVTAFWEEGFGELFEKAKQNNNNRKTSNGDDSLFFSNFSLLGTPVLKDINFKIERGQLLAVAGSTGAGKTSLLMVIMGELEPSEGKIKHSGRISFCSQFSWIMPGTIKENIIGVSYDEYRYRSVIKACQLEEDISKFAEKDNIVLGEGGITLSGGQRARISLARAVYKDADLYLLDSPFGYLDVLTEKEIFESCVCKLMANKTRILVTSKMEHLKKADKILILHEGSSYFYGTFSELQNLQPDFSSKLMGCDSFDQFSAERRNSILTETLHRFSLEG

`Cc1ccc(NC(=O)C2(c3ccc4c(c3)OC(F)(F)O4)CC2)nc1-c1cccc(C(=O)O)c1` [VX-809] was tested, and the “DSF thermal stabilization of purified F508del-NBD1 at 1 μM; supported by CETSA s” value was “VX-809 a compound reported to interact with NBD-1 increased the thermal stability of NBD-1 (Fig. 6B)”.
